From patent US10786475B2, “Method for preventing, treating, or improving fatty liver by administering effective amounts of azelaic acid to a subject” (Korea University Research and Business Foundation, priority 2018, dated 2020)

What was measured:
[1] = system: Hepa1c1c-7 cells stimulated by LPS; assay: IL-6 and TNF-α cytokine concentration (ELISA) in LPS-treated Hepa1c1c-7 cells; type: cell-based, mouse; settings: 50 μM AzA pretreatment 1 hour, 100 ng/mL LPS 6 hours
Method: Hepa1c1c-7 cells were cultured in a 12-well plate for 24 hours. Subsequently, the cells were pretreated with 50 μM of AzA for 1 hour, and treated with 100 ng/mL LPS for 6 hours with the AzA present. The Hepa1c1c-7 cells were lysed in a cell lysis buffer (50 mM Tris, 1% Triton-X 100, 1 mM EDTA, proteinase inhibitor), centrifuged at 13,000 rpm and 4° C. for 20 minutes, thereby obtaining a supernatant, and then the supernatant was analyzed using a Mouse IL6 ELISA kit and a Mouse TNFα ELISA kit (Thermo Scientific, IL, USA). Tumor necrosis factor-alpha (TNF-α) and interleukin-6 (IL-6) were quantified using ELISA known to those of ordinary skill in the art.

[2] = system: 3T3-L1 cells stimulated by LPS; assay: GPCR 10-pathway reporter assay in LPS-induced 3T3-L1 cells; type: cell-based, mouse; settings: 100 ng/mL LPS 1 hour, 50 μM AzA 6 hours
Method: 3T3-L1 cells, mouse pre-adipose cells were purchased from the Korean Cell Line Bank (Seoul, Korea). The 3T3-L1 cells were cultured in Dulbecco's modified Eagle's medium (DMEM) supplemented with 10% heat-inactivated bovine calf serum (Gibco, Grand Island, N.Y., USA) and 1% PEST under 5% CO2 at 37° C. The 3T3-L1 pre-adipose cells were seeded on a 6-well plate at 1×10^6 cells/well to differentiate into adipose cells, and cultured to a density of 100%. After 2 days, the cultured 3T3-L1 pre-adipose cells were incubated in DMEM containing 10% fetal bovine serum (FBS) and an MDI solution (0.5 mM IBMX, 0.5 μM dexamethasone and 10 μg/mL insulin) for 3 days. Subsequently, the treated cells were cultured in DMEM containing 10% FBS and 10 μg/mL insulin, and the formation of lipid droplets in cells and the degree thereof were confirmed, and based on this, the differentiation into adipose cells was confirmed.
3T3-L1 adipose cells were seeded on a 96 well-plate at 1×10^4 cells/well and cultured for 24 hours, and transfected with a construct including a transcription factor promoter and a luciferase for 8 hours. […]
To confirm a mechanism of an anti-inflammatory effect of an AzA, 10 transcription factors for signal transduction of GPCR were analyzed by the same method as described in Example 7-3.

[3] = system: fatty liver-induced mouse; assay: Fatty liver inhibitory effect in high-fat diet fatty liver-induced wild-type C57BL/6J mouse; type: in vivo; settings: WT mouse
Method: Mice used in the example, which were an eight-week-old C57BL/6J model, were purchased from Samtako, and Olfr544 KO mice were manufactured by Macrogen based on the C57BL/6J model using a CRISPR/Cas9 system. All experiments performed in the example are compliant to a protocol approved by the Animal Experiment Ethics Committee at Korea University (Protocol No. KUIACUC-20170322-1). The mice were acclimated at 21 to 25° C. under a 50 to 60% relative humidity condition for 12 hours before being used in the experiments, and a total of 18 mice were treated with an AzA diluted with distilled water at 50 mg/kg of body weight and distilled water as a control through oral administration for 6 weeks. The mice used in the experiments were fed a high-fat diet containing 60% fat (D12492, Research Diets, Inc) to induce fatty liver, and then a body weight was measured every week.
The measurement of the concentration of triglycerides in liver tissue was performed by homogenizing the obtained liver tissue of a mouse in 600 μL of acetone (Daejung, Korea), storing the homogenate at 4° C. for 24 hours, and obtaining a fat part by centrifugation at 12000 rpm for 10 minutes. The fat part was dried, dissolved in 95% ethanol, quantified using a Cobas C11 autoanalyzer (Roche, Basel, Switzerland), and normalized with a liver weight.
RNA was extracted from liver tissue, and the expression of PPARα and PPARα downstream genes such as Acox1, Cpt1a and Hmgcs2 were analyzed by qPCR according to the method of Example 3-1 described above.
To evaluate fatty acid oxidation, 100 mg of liver tissue was homogenized in a 0.25 M cold sucrose solution, centrifuged at 600 rpm and 4° C. thereby obtaining a supernatant, and then 50 μL of 10% Triton X-100 was added to 450 μL of the supernatant. Subsequently, 5 μL of the sample was mixed with 950 μL of 50 mM Tris-HCl, 10 μL of 20 mM NAD, 3 μL of 0.33 M dithiothreitol, 5 μL of 1.5% BSA, 5 μL of 2% Triton X-100, 10 μL of 10 mM CoA, and 10 μL of 1 mM FAD. The mixture was mixed with 2 μL of 5 mM palmitoyl-CoA, reacted at 37° C. and analyzed at 340 nm for 5 minutes using a spectrophotometer.
A C57BL/6J mouse and an Olfr544 KO mouse were treated with HFD and an AzA for 6 weeks and housed in a metabolic cage for three days, and the result at day 3 was analyzed as an experimental result. An oxygen consumption amount (VO2) and a carbon dioxide production amount (VCO2) were analyzed using an Oxylet Physiocage System (Panlab/Harvard apparatus, Cornella, Spain) and suiteMETABOLISM (V2.2.01, Panlab) software. A respiratory quotient (RQ) was calculated using the formula VCO2/VO2, and energy expenditure was analyzed using the formula EE=VO2×1.11×(3.815+1.232×RQ). The oxidation of a free fatty acid was calculated using the formula (1.6946×VO2)−(1.7012×VCO2).
An AzA (100 mg/kg) was intraperitoneally administered, and then concentration of a glycerol, which is a body fat decomposition marker, was measured. […] To measure glucose resistance and insulin resistance, a glucose and insulin resistance test was performed under a condition, in which glucose ([…]) and insulin (0.35 unit/kg/bw) are administered to a mouse.

[4] = HFD and AzA for 6 weeks, metabolic cage day 3
[5] = high-fat diet, AzA 50 mg/kg oral, 6 weeks
[6] = high-fat diet, AzA 50 mg/kg oral, 6 weeks, compared with control group

O=C(O)CCCCCCCC(=O)O [AzA, nonanedioic acid]
expression level of the IL-6 protein [1]: tendency of decrease | FOXO transcription factor activity (PI-3 Kinase/AKT pathway) [2]: significant activity | glucose resistance (glucose resistance test) [3]: significantly improved | insulin resistance (insulin resistance test) [3]: significantly improved | abdominal fat (microCT) ([3]; AzA 50 mg/kg/day): significantly decreased | total fat amount (microCT) ([3]; AzA 50 mg/kg/day): significantly decreased | blood glycerol concentration (body fat decomposition marker) ([3]; AzA 100 mg/kg intraperitoneally): stimulated the decomposition of body fats | oxidation of free fatty acids (indirect calorimetric analysis) [3, 4]: increase | respiratory quotient (indirect calorimetric analysis) [3, 4]: decrease | expression of PPARα and a target gene thereof in liver tissue [3, 5]: significantly increased | triglyceride concentration in liver tissue [3, 5]: decreased | body weight [3, 6]: decreased | fatty acid oxidation rate in liver tissue [3, 6]: increased
